# Test results from patent US8975259B2, “Compositions and methods for inhibiting G protein signaling” (University of Rochester, priority 2007, dated 2015).
# What was measured:
# [1] = system: human δ opioid receptor (hDOR-CHO cells); assay: Total inositol phosphate assay in hDOR-CHO cells; format: cell-based; details: DPDPE, Deltorphin II, M119 10 μM; naltrindole 100 μM; result in words
# Description: (§1) Chinese hamster ovary (CHO) cells stably expressing either the human κ (hKOR-CHO), δ (hDOR-CHO)(L. Toll, Stanford Research Institute, Palo Alto, Calif.) or μ (hMOR-CHO)(G. Uhl, National Institute on Drug Abuse, Baltimore, Md.) opioid receptor were used in the experiments. Cells in 6-well plates were labeled by adding 4 μCi of [^3H]inositol for 24 hr in inositol-free F-10 media, without serum. After labeling, LiCl was added directly to the labeling media at a final concentration of 10 mM. Ligands or peptides were added at the same time. The final volume of each well was 1 mL. The plates were put back in to the incubator at 37° C. for 30 min after which time the medium was aspirated and the plates were washed twice with 1× PBS. Ice-cold 50 mM formic acid, 1 mL, was added to the plates which were placed in the cold room at 4° C. for 30 min. After the incubation, the contents of the plates were applied to Dowex AG1-X8 columns and allowed to flow all the way through the column. The columns were washed, twice each, with 50 and 100 mM formic acid, for a total of four washes, followed by elution of the IP-containing fraction with 3 mL of 1.2 M ammonium formate/0.1 M formic acid. The eluted fraction was mixed with Scintisafe scintillation fluid, for high salt, and counted. The data are represented as the fold increase over control in total inositol phospates. All experiments were repeated three times and performed in duplicate. Control cells for each experiment were labeled with [^3H]inositol and LiCl, in the same manner as the treatment groups.
# [2] = system: human μ opioid receptor (hMOR-CHO cells); assay: Total inositol phosphate assay in hMOR-CHO cells; format: cell-based
# Description: as §1
# [3] = system: opioid-induced antinociception in mice; assay: 55° C. warm-water tail-flick antinociception; format: in vivo, mouse; details: i.c.v., 20 min, 55° C. tail-flick; 95% CL in parentheses
# Fαi1GDPβ1γ2 heterotrimer = target: T1, Fαi1GDPβ1γ2 heterotrimer (UniProt P54311+P63212); assay: Dissociation of Fαi1 from preformed Fαi1β1γ2 heterotrimer (flow cytometry); format: binding; details: result in words
# T1 construct: made in house; host or cells: b-βγ: Sf9 insect cells
# T1 sequence (P54311 whole entry): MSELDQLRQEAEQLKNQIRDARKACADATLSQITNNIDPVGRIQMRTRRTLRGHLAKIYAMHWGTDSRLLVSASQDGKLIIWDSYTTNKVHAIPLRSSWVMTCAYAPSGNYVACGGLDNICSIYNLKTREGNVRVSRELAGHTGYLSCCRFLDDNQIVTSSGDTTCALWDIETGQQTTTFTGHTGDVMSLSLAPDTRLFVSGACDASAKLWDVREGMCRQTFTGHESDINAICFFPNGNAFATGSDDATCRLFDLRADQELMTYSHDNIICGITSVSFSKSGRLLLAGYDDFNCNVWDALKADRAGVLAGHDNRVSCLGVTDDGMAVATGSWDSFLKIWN
# T1 sequence (P63212 2-68 limits assumed): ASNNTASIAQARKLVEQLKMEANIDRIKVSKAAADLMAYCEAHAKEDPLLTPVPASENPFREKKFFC
# Description: Assays were used to determine peptide effects on Gα-Gβγ interactions included competition and dissociation assays (Ghosh, et al. (2003) supra). […] To measure dissociation of Fan from b-Gβaγ2, 100 pM of Fa^ was incubated with 50 pM immobilized b-Gβ1γ2 at room temperature for 15-20 minutes. The fluorescence of bound Fαii subunit was measured, followed by the addition of a 200-fold excess of unlabeled Gcx±x or peptides and the amount of Fan remaining bound to the beads was measured at the indicated times.
# The ability of peptides to dissociate a preformed hetero-trimer was assessed by comparing the rates of Fαi1 dissociation from Fαi1β1γ2 with excess unlabeled αi1 competitor (intrinsic dissocia-tion rate) and in the presence of a saturating concentration of peptide.
# PLCβ2 = details: Scott, et al. (2001); read-out: IC50 for inhibition of PLC β2 activation by Gβ1γ2; cited from earlier work
compound,measurement,setting,value
Oc1ccc2c3c1O[C@H]1c4[nH]c5ccccc5c4C[C@@]4(O)[C@@H](C2)N(CC2CC2)CC[C@]314 [naltrindole],effect on IP generation over control treated cells,[1],no significant effect
"[D-Pen^2,D-Pen^5]enkephalin [DPDPE]",effect on IP generation over control treated cells,[1],neither DPDPE (10 μM) (FIG. 15C) nor Deltorphin II (10 μM) (FIG. 15D) significantly increased IP generation
same,effect of compound by itself on IP production,[2],no effect
same,ED50 of opioid agonist alone,[3],6.5 nmol
CC[C@H](C)[C@H](NC(=O)[C@H](CC(N)=O)NC(=O)[C@H](CC(C)C)NC(=O)[C@H](C)NC(=O)[C@H](CCCCN)NC(=O)[C@H](CCCNC(=N)N)NC(=O)[C@@H](NC(=O)[C@@H](N)CO)[C@@H](C)CC)C(=O)N[C@@H](CC(C)C)C(=O)NCC(=O)N[C@@H](Cc1ccc(O)cc1)C(=O)N1CCC[C@H]1C(=O)N[C@@H](CC(=O)O)C(=O)N[C@@H](Cc1ccc(O)cc1)C(=O)N[C@@H](CC(=O)O)C(=O)O [SIRK],promotion/acceleration of heterotrimer dissociation,Fαi1GDPβ1γ2 heterotrimer,promotes dissociation
same,IC50,PLCβ2,5 µM
